Tests used:
[1] = target: T1, CDK9/CycT1 (Homo sapiens (Human), UniProt P50750); experiment: CDK9 kinase assay, ATP concentration at Km (mobility shift, Caliper LC3000); format: biochemical; settings: 6 μM ATP, 3 nM CDK9/CycT1; read-out: CDK9 ATP conc. at Km (IC50)
Procedure, shortened: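 3 nM CDK9/CycT1 with 6 µM ATP and 1.5 µM FITC-peptide (HEPES pH 7.2) was preincubated with compound 15 min at 25 °C. Reaction started with 10 mM MgCl2 and ran 90 min at 25 °C. Turnover was measured by mobility-shift separation of phosphorylated and unphosphorylated peptide.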

[2] = target: T1, CDK9/CycT1; experiment: CDK9 kinase assay, high ATP concentration (5 mM ATP); format: biochemical; settings: 1.5 nM CDK9, read-out: CDK9 High ATP conc. (IC50)
Procedure, shortened: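 Caliper mobility-shift read-out of phosphorylated vs unphosphorylated FITC-peptide (1.5 μM), giving percent turnover. Final 1.5 nM CDK9/CycT1 and 5 mM ATP in 50 mM HEPES pH 7.2, 1 mM DTT, 10 mM MgCl2; compound preincubated 15 min, reaction 90 min at 25° C, stopped with EDTA.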

[3] = tested on: phosphorylation of RNA Polymerase II (RNAPII) at the Ser2 site in MCF7 cells; experiment: MCF7 pSer2 RNAPII MOA assay (immunofluorescence); format: cell-based; settings: Homo sapiens, MCF7, 6 h, 6-hr treatment, read-out: p-Ser 2 RNAPII (IC50)
Procedure, shortened: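 MCF7 cells (2500/well), plated overnight, were treated for 6 h at 37° C. with CDK9 inhibitors in a 7-point dose response from 3 μM to 0.004 μM. Cells were then fixed, permeabilized and immunostained for Ser2-phospho RNAPII with Alexa Fluor 488 secondary plus DAPI. Per-well phosphorylation was read by microplate cytometry.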

[4] = tested on: MV411 cells; experiment: MV411 caspase activity assay (Caspase-Glo 3/7); format: cell-based; settings: Homo sapiens, MV4-11, 6 h, 6-hr treatment, caspase 3/7 induction
Procedure, shortened: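 MV411 AML cells (3000/well) were plated overnight, then treated with compound for 6 h at 37 °C. Caspase-3/7 activity was read as luminescence after 30 min with Caspase-Glo 3/7 reagent at room temperature.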

T1 sequence (P50750 whole entry): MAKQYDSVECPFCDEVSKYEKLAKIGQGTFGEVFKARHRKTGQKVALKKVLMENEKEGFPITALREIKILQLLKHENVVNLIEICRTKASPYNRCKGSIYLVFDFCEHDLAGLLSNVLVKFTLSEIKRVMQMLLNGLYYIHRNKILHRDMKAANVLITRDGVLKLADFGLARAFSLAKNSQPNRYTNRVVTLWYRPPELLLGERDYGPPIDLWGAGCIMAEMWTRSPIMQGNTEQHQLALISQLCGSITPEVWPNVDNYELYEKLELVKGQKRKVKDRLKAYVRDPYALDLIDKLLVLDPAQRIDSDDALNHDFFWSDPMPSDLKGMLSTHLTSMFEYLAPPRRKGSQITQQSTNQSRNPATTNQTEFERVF
T1 sequence (O60563 whole entry partner): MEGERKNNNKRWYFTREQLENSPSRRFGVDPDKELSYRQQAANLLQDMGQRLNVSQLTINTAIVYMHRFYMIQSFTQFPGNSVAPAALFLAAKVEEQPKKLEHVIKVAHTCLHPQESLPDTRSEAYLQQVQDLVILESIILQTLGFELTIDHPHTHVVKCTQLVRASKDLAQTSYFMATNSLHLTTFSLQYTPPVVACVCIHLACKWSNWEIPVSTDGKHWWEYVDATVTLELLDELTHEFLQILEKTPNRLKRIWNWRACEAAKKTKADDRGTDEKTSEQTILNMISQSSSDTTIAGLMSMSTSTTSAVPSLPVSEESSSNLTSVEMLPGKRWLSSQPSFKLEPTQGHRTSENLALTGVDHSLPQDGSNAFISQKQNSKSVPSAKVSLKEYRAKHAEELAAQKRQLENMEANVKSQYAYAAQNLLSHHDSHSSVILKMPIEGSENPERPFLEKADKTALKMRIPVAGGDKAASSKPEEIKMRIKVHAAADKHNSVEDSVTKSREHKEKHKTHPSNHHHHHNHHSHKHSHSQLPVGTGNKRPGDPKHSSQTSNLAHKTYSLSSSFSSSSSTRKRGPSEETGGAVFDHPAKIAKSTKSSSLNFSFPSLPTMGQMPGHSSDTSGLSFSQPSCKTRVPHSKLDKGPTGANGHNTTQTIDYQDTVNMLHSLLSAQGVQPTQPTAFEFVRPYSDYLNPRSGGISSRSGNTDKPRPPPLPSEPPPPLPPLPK

Compound	IC50 [1] [µM]	IC50 [2] [µM]	IC50 [3] [µM]	IC50 [4] [µM]
CC(=O)N[C@@H]1CCC[C@H](C(=O)Nc2cc(-c3cnn4c3CCC4)c(Cl)cn2)C1 [Example 10, (1S,3R)-3-acetamido-N-(5-chloro-4-(5,6-dihydro-4H-pyrrolo[1,2-b]pyrazol-3-yl)pyridin-2-yl)cyclohexanecarboxamide]	0.005	0.217	0.55	0.333
CC(=O)N[C@@H]1CCC[C@H](C(=O)Nc2cc(-c3cnn4c3COCC4)c(Cl)cn2)C1 [Example 11, (1S,3R)-3-acetamido-N-(5-chloro-4-(6,7-dihydro-4H-pyrazolo[5,1-c][1,4]oxazin-3-yl)pyridin-2-yl)cyclohexanecarboxamide]	0.011	1.2	2.7	1.93
CC(=O)N[C@H]1CCC[C@H](C(=O)Nc2cc(-c3cnn4c3CC(C)(C)C4)c(F)cn2)C1 (relative stereo) [Example 84, (1S,3S)-3-acetamido-N-(4-(5,5-dimethyl-5,6-dihydro-4H-pyrrolo[1,2-b]pyrazol-3-yl)-5-fluoropyridin-2-yl)cyclohexane-1-carboxamide]	0.028	2.13	> 1.95	2.52
CC(=O)N[C@@H]1CCC[C@H](C(=O)Nc2cc(-c3cnn4c3CN(C)CC4)c(Cl)cn2)C1 [Example 13, (1S,3R)-3-acetamido-N-(5-chloro-4-(5-methyl-4,5,6,7-tetrahydropyrazolo[1,5-a]pyrazin-3-yl)pyridin-2-yl)cyclohexanecarboxamide]	0.006	0.24	0.82	0.914
O=C(Nc1cc(-c2cnn3c2CCCC3)c(Cl)cn1)[C@H]1CCC[C@@H](NC(=O)[C@H]2CCCO2)C1 [Example 36, (R)—N-((1R,3S)-3-((5-chloro-4-(4,5,6,7-tetrahydropyrazolo[1,5-a]pyridin-3-yl)pyridin-2-yl)carbamoyl)cyclohexyl)tetrahydrofuran-2-carboxamide]	< 0.003	0.039	0.038	0.104

More lines, now with the values ahead:

IC50 [1] [µM]	IC50 [2] [µM]	IC50 [3] [µM]	IC50 [4] [µM]	Compound
< 0.003	0.004	0.025	0.029	CC(=O)N[C@@H]1CCC[C@H](C(=O)Nc2cc(-c3cnn4c3CC(C)(C)C4)c(F)cn2)C1 [Example 25, (1S,3R)-3-acetamido-N-(4-(5,5-dimethyl-5,6-dihydro-4H-pyrrolo[1,2-b]pyrazol-3-yl)-5-fluoropyridin-2-yl)cyclohexanecarboxamide]
< 0.003	0.012	0.036	0.09	N#CCC(=O)N[C@@H]1CCC[C@H](C(=O)Nc2cc(-c3cnn4c3CCCC4)c(Cl)cn2)C1 [Example 31, (1S,3R)—N-(5-chloro-4-(4,5,6,7-tetrahydropyrazolo[1,5-a]pyridin-3-yl)pyridin-2-yl)-3-(2-cyanoacetamido)cyclohexanecarboxamide]
< 0.003	0.014	0.122	0.071	CC1(C)Cc2c(-c3ccnc(NC(=O)[C@H]4CCC[C@@H](NC(=O)C5COC5)C4)c3)cnn2C1 [Example 18, N-((1R,3S)-3-((4-(5,5-dimethyl-5,6-dihydro-4H-pyrrolo[1,2-b]pyrazol-3-yl)pyridin-2-yl)carbamoyl)cyclohexyl)oxetane-3-carboxamide]
< 0.003	0.008	0.048	0.039	CC(=O)N[C@@H]1CCC[C@H](C(=O)Nc2cc(-c3cnn4c3CC(C)(C)CC4)ccn2)C1 [Example 44, (1S,3R)-3-acetamido-N-(4-(5,5-dimethyl-4,5,6,7-tetrahydropyrazolo[1,5-a]pyridin-3-yl)pyridin-2-yl)cyclohexanecarboxamide]
< 0.003	0.007	0.045	0.043	CC(=O)N[C@@H]1CCC[C@H](C(=O)Nc2cc(-c3cnn4c3CC(C)CC4)c(Cl)cn2)C1 (single isomer, unassigned) [Example 64]

From patent publication US10717746B2, “Chemical compounds” (ASTRAZENECA AB, priority 2015, dated 2020)
